From patent US10246429B2, “Vinyl fluoride cyclopropyl fused thiazin-2-amine compounds as beta-secretase inhibitors and methods of use” (AMGEN INC., priority 2015, dated 2019)
pIC50: −log10 of the molar value.

Key:
BACE2 = BACE2 (Homo sapiens (Human), UniProt Q9Y5Z0); assay: In vitro enzymatic BACE2 FRET assay; type: biochemical; details: read-out: IC50 IP (μM) BACE2 Enzyme
Description: (§1) In Vitro Enzymatic BACE1 and BACE2 FRET (Fluorescence Resonance Energy Transfer) Assays (Enzyme Assay Data in Table 1)

BACE1 [1] = target: T1, BACE1 (Homo sapiens (Human), UniProt P56817); assay: In vitro enzymatic BACE1 FRET assay; type: biochemical; details: read-out: IC50 IP (μM) BACE1 Enzyme
Target sequence in this assay (P56817 46-501): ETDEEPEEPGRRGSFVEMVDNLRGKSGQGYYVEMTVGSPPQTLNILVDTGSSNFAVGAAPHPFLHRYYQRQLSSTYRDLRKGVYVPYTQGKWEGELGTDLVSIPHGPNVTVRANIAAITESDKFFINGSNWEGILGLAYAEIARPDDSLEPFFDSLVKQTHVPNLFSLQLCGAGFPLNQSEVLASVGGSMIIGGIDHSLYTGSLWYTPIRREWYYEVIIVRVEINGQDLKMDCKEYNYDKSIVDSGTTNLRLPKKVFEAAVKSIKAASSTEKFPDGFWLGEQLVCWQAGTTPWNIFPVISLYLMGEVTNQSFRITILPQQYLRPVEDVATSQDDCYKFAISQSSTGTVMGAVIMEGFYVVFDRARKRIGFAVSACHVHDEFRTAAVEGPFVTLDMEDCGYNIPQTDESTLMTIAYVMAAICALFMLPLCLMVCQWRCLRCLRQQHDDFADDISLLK
Description: as §1

BACE1 [2] = target: T1, BACE1; assay: BACE1 cell assay; type: cell-based; details: for IC50: read-out: IC50 IP (μM) BACE1 Cell
Target sequence in this assay (P56817 46-501, species assumed): as the sequence (P56817 46-501) above

Cathepsin D (CatD) = Cathepsin D (CatD) (Homo sapiens (Human), UniProt P07339); assay: CatD assay; type: biochemical; details: read-out: IC50 IP (μM) CatD
Cathepsin D (CatD), sequence (P07339 65-412, species assumed): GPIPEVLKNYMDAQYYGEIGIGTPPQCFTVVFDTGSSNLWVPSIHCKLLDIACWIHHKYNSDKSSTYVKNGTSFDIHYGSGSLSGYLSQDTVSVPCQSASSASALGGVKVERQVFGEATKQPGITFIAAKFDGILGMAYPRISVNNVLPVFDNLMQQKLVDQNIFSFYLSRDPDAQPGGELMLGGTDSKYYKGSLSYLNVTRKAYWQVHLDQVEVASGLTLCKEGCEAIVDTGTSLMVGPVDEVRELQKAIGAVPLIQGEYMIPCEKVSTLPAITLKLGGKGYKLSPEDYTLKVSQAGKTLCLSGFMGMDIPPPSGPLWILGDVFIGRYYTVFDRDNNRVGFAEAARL

BACE2, sequence (Q9Y5Z0 63-518): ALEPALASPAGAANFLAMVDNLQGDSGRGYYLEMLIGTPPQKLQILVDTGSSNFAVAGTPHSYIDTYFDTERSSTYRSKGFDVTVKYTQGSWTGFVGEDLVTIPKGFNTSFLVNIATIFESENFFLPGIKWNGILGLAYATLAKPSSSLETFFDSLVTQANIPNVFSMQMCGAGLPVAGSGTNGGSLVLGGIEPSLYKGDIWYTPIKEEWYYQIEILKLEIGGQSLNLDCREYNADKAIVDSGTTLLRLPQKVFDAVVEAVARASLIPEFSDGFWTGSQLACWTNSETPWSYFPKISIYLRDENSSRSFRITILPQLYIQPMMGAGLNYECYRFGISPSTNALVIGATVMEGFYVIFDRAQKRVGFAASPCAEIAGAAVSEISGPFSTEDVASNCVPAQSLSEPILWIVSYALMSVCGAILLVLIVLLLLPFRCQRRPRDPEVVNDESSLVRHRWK

IC50 (Cathepsin D (CatD)) [µM]	SMILES	IC50 (BACE2) [µM]	IC50 (BACE1 [1]) [µM]	IC50 (BACE1 [2]) [µM]	pIC50 (BACE1 [2])
	C[C@]1(c2cc(/C=C(\F)c3ccc(C#N)cn3)ccc2F)N=C(N)S[C@@]2(C(=O)N3CCO[C@@H]4C[C@@H]43)C[C@H]21 (single isomer, unassigned) [Example 312]	0.068	0.0012	0.0008	
	C[C@]1(c2cc(/C=C(\F)c3ccc(C#N)cn3)ccc2F)N=C(N)S[C@@]2(C(=O)N3CC[C@H](O)C3)C[C@H]21 [Example 125, 6-((Z)-2-(3-((1S,5S,6S)-3-amino-1-((S)-3-hydroxypyrrolidine-1-carbonyl)-5-methyl-2-thia-4-azabicyclo[4.1.0]hept-3-en-5-yl)-4-fluorophenyl)-1-fluorovinyl)nicotinonitrile]	0.0364	0.000592	0.000986	
	COC(=O)[C@]12C[C@H]1[C@@](C)(c1cc(/C=C(\F)c3cnc(Cl)cn3)ccc1F)N=C(N)S2 [Example 149, (1S,5S,6S)-methyl 3-amino-5-(5-((Z)-2-(5-chloropyrazin-2-yl)-2-fluorovinyl)-2-fluorophenyl)-5-methyl-2-thia-4-azabicyclo[4.1.0]hept-3-ene-1-carboxylate]	0.206	0.0352	0.883	
	COC(=O)[C@]12C[C@H]1[C@@](C)(c1cc(/C=C(\F)c3cnc(OCc4ncco4)cn3)ccc1F)N=C(N)S2 [Example 150, (1S,5S,6S)-methyl 3-amino-5-(2-fluoro-5-((Z)-2-fluoro-2-(5-(oxazol-2-ylmethoxy)pyrazin-2-yl)vinyl)phenyl)-5-methyl-2-thia-4-azabicyclo[4.1.0]hept-3-ene-1-carboxylate]	2.42	0.0535	0.379	
	Cc1cc(C#N)cnc1/C(F)=C/c1ccc(F)c([C@@]2(C)N=C(N)S[C@@]3(C(=O)N4CCOCC4)C[C@H]32)c1 [Example 160, 6-((Z)-2-(3-((1S,5S,6S)-3-amino-5-methyl-1-(morpholine-4-carbonyl)-2-thia-4-azabicyclo[4.1.0]hept-3-en-5-yl)-4-fluorophenyl)-1-fluorovinyl)-5-methylnicotinonitrile]	0.0891	0.00734		7.83
125	COc1ncc(/C=C(\F)c2ccc(C#N)cn2)cc1[C@@]1(C)N=C(N)S[C@@]2(C(=O)N3CC[C@@H](F)C3)C[C@H]21 [Example 184, 6-((Z)-2-(5-((1S,5S,6S)-3-amino-1-((R)-3-fluoropyrrolidine-1-carbonyl)-5-methyl-2-thia-4-azabicyclo[4.1.0]hept-3-en-5-yl)-6-methoxypyridin-3-yl)-1-fluorovinyl)nicotinonitrile]	0.34		0.014	
	C[C@]1(c2cc(/C=C(\F)c3cnc(C#N)cn3)ccc2F)N=C(N)S[C@@]2(C(=O)N3CCOCC3)C[C@H]21 [Example 200, 5-((Z)-2-(3-((1S,5S,6S)-3-amino-5-methyl-1-(morpholine-4-carbonyl)-2-thia-4-azabicyclo[4.1.0]hept-3-en-5-yl)-4-fluorophenyl)-1-fluorovinyl)pyrazine-2-carbonitrile]		0.001		8.40
	C[C@]1(c2cc(/C=C(\F)c3cnc(C#N)cn3)ccc2F)N=C(N)S[C@@]2(C(=O)N3CC[C@H](F)C3)C[C@H]21 [Example 202, 5-((Z)-2-(3-((1S,5S,6S)-3-amino-1-((S)-3-fluoropyrrolidine-1-carbonyl)-5-methyl-2-thia-4-azabicyclo[4.1.0]hept-3-en-5-yl)-4-fluorophenyl)-1-fluorovinyl)pyrazine-2-carbonitrile]	0.04	0.001	0.001	
	C[C@]1(c2cc(/C=C(\F)c3cnc(C#N)cn3)ccc2F)N=C(N)S[C@@]2(C(=O)N3CC[C@@H](F)C3)C[C@H]21 [Example 203, 5-((Z)-2-(3-((1S,5S,6S)-3-amino-1-((R)-3-fluoropyrrolidine-1-carbonyl)-5-methyl-2-thia-4-azabicyclo[4.1.0]hept-3-en-5-yl)-4-fluorophenyl)-1-fluorovinyl)pyrazine-2-carbonitrile]	0.045	0.001	0.001	
	C[C@]1(c2cc(/C=C(\F)c3cnc(C#N)cn3)ccc2F)N=C(N)S[C@@]2(C(=O)N3CCCC3)C[C@H]21 [Example 204, 5-((Z)-2-(3-((1S,5S,6S)-3-amino-5-methyl-1-(pyrrolidine-1-carbonyl)-2-thia-4-azabicyclo[4.1.0]hept-3-en-5-yl)-4-fluorophenyl)-1-fluorovinyl)pyrazine-2-carbonitrile]	0.048	0.001		8.52
	CNC(=O)[C@]12C[C@H]1[C@@](C)(c1cc(/C=C(\F)c3cc4c(cn3)OCCO4)ccc1F)N=C(N)S2 [Example 249, (1S,5S,6S)-3-amino-5-(5-((Z)-2-(2,3-dihydro-[1,4]dioxino[2,3-c]pyridin-7-yl)-2-fluorovinyl)-2-fluorophenyl)-N,5-dimethyl-2-thia-4-azabicyclo[4.1.0]hept-3-ene-1-carboxamide]				6.47
	C[C@]1(c2cc(/C=C(\F)c3cnc(C#N)cn3)ccc2F)N=C(N)S[C@]2(CO)[C@H]1C2(F)F [Example 254, 5-((Z)-2-(3-((1S,5S,6R)-3-amino-7,7-difluoro-1-(hydroxymethyl)-5-methyl-2-thia-4-azabicyclo[4.1.0]hept-3-en-5-yl)-4-fluorophenyl)-1-fluorovinyl)pyrazine-2-carbonitrile trifluoromethyl acetate]			0.0894	
199	COC[C@]12C[C@H]1[C@@](C)(c1cc(/C=C(\F)c3cnc(OCC4CC(F)(F)C4)cn3)ccc1F)N=C(N)S2 [Example 278]	1.32			
287	CN(C)C(=O)[C@]12C[C@H]1[C@@](C)(c1cc(/C=C(\F)c3cnc(OCC(F)(F)F)cn3)cnc1F)N=C(N)S2 [Example 282, (1S,5S,6S)-3-amino-5-(2-fluoro-5-((Z)-2-fluoro-2-(5-(2,2,2-trifluoroethoxy)pyrazin-2-yl)vinyl)pyridin-3-yl)-N,N,5-trimethyl-2-thia-4-azabicyclo[4.1.0]hept-3-ene-1-carboxamide]	0.125			
175	CC(=O)COc1cnc(/C(F)=C/c2cnc(F)c([C@@]3(C)N=C(N)S[C@@]4(C(=O)N(C)C)C[C@H]43)c2)cn1 [Example 288, (1S,5S,6S)-3-amino-5-(2-fluoro-5-((Z)-2-fluoro-2-(5-(2-oxopropoxy)pyrazin-2-yl)vinyl)pyridin-3-yl)-N,N,5-trimethyl-2-thia-4-azabicyclo[4.1.0]hept-3-ene-1-carboxamide]	0.294			
	C[C@]1(c2cc(/C=C(\F)c3ccc(C#N)cn3)cnc2F)N=C(N)S[C@@]2(C(=O)N3[C@H]4COC[C@@H]3COC4)C[C@H]21 [Example 298, 6-((Z)-2-(5-((1S,5S,6S)-3-amino-1-((1R,5R)-3,7-dioxa-9-azabicyclo[3.3.1]nonane-9-carbonyl)-5-methyl-2-thia-4-azabicyclo[4.1.0]hept-3-en-5-yl)-6-fluoropyridin-3-yl)-1-fluorovinyl)nicotinonitrile]				7.76
401	C[C@]1(O)CCN(C(=O)[C@]23C[C@H]2[C@@](C)(c2cc(/C=C(\F)c4ccc(C#N)cn4)ccc2F)N=C(N)S3)C1 [Example 309, 6-((Z)-2-(3-((1S,5S,6S)-3-amino-1-((S)-3-hydroxy-3-methylpyrrolidine-1-carbonyl)-5-methyl-2-thia-4-azabicyclo[4.1.0]hept-3-en-5-yl)-4-fluorophenyl)-1-fluorovinyl)nicotinonitrile]	0.007			
52.6	C[C@]1(c2cc(/C=C(\F)c3cnc(N4CCC4)cn3)ccc2F)N=C(N)S[C@@]2(C(=O)N3CCOCC3)C[C@H]21 [Example 351, ((1S,5S,6S)-3-amino-5-(5-((Z)-2-(5-(azetidin-1-yl)pyrazin-2-yl)-2-fluorovinyl)-2-fluorophenyl)-5-methyl-2-thia-4-azabicyclo[4.1.0]hept-3-en-1-yl)(morpholino)methanone]	1.56			

SMILES	IC50 (Cathepsin D (CatD)) [µM]	IC50 (BACE2) [µM]	IC50 (BACE1 [1]) [µM]	IC50 (BACE1 [2]) [µM]	pIC50 (BACE1 [2])
C#CCOc1cnc(/C(F)=C/c2cnc(F)c([C@@]3(C)N=C(N)S[C@@]4(C(=O)O)C[C@H]43)c2)cn1 [Example 285, (1S,5S,6S)-3-amino-5-(2-fluoro-5-((Z)-2-fluoro-2-(5-(prop-2-yn-1-yloxy)pyrazin-2-yl)vinyl)pyridin-3-yl)-5-methyl-2-thia-4-azabicyclo[4.1.0]hept-3-ene-1-carboxylic acid]	316	6.35			
C[C@@H]1COCCN1C(=O)[C@]12C[C@H]1[C@@](C)(c1cc(/C=C(\F)c3ccc(C#N)cn3)cnc1F)N=C(N)S2 [Example 290, 6-((Z)-2-(5-((1S,5S,6S)-3-amino-5-methyl-1-((R)-3-methylmorpholine-4-carbonyl)-2-thia-4-azabicyclo[4.1.0]hept-3-en-5-yl)-6-fluoropyridin-3-yl)-1-fluorovinyl)nicotinonitrile]	400	0.229			
COC[C@]12C[C@H]1[C@@](C)(c1cc(/C=C(\F)c3ccc(C#N)cn3)ccc1F)N=C(N)S2 [Example 293, 6-((Z)-2-(3-((1S,5S,6S)-3-amino-1-(methoxymethyl)-5-methyl-2-thia-4-azabicyclo[4.1.0]hept-3-en-5-yl)-4-fluorophenyl)-1-fluorovinyl)nicotinonitrile]	400	0.192	0.0165		
CNC(=O)[C@]12C[C@H]1[C@@](C)(c1cc(/C=C(\F)c3ccc(C#CC(C)(C)C)cn3)ccc1F)N=C(N)S2 [Example 359, (1S,5S,6S)-3-amino-5-(5-((Z)-2-(5-(3,3-dimethylbut-1-yn-1-yl)pyridin-2-yl)-2-fluorovinyl)-2-fluorophenyl)-N,5-dimethyl-2-thia-4-azabicyclo[4.1.0]hept-3-ene-1-carboxamide]	26	0.794			
